Earlier results on two compounds are cited in US20250313559A1 (Bayer Aktiengesellschaft, priority 2024, published 2025).

The structures appear in SMILES notation. Entries after “also recorded” stand apart in the source; their conditions may differ.

In series [1] the test system is patients with HF and LVEF 35%. To be noted: EMPHASIS-HF; HFrEF; cited from earlier work.
The test system of series [2] is patients with HFpEF. To be noted: TOPCAT, global trial; cited from earlier work.
Series [3] has as its system patients with HF and LVEF 45%. To be noted: TOPCAT; HFmrEF/HFpEF; cited from earlier work.
In series [4] the test system is patients with HF and left ventricular ejection fraction (LVEF) 35%. The settings on record: RALES; HFrEF; cited from earlier work.

On to `COC(=O)[C@@H]1CC2=CC(=O)CC[C@]2(C)[C@@]23O[C@@H]2C[C@@]2(C)[C@@H](CC[C@@]24CCC(=O)O4)[C@H]13` [eplerenone], for which the “Risk of death and hospitalization” value in series [1] was “decrease the risk of death and hospitalization”.

For the compound `CC(=O)S[C@@H]1CC2=CC(=O)CC[C@]2(C)[C@H]2CC[C@@]3(C)[C@@H](CC[C@@]34CCC(=O)O4)[C@H]12` [spironolactone], in series [2], the primary composite endpoint result is reported as “did not reduce the primary endpoint; also recorded: did not demonstrate benefit”. In series [3], the “Primary endpoint (first heart failure hospitalization or cardiovascular death)” value is reported as “did not reduce the primary endpoint; also recorded: did not improve the primary outcome”. The “Risk of death and hospitalization” value in series [4] was “decrease the risk of death and hospitalization”.
